Results: patent US9549552B2, “Active compound combinations having insecticidal properties” (BAYER CROPSCIENCE AKTIENGESELLSCHAFT, priority 2013, dated 2017)

Legend:
Format in all cases: in vivo
Conditions in all cases: mortality
[1] = test system: mustard beetle larvae (Phaedon cochleariae); assay: Phaedon cochleariae spray test (Example A3, Chinese cabbage leaf disks)
Experimental: (§1) To produce a suitable preparation of active compound, 1 part by weight of active compound is mixed with the stated amount of solvents and is diluted with water, containing an emulsifier concentration of 1000 ppm, to the desired concentration. Further test concentrations are prepared by dilution with emulsifier containing water.
Chinese cabbage (Brassica pekinensis) leaf disks are sprayed with a preparation of the active ingredient of the desired concentration. Once dry, the leaf disks are infested with mustard beetle larvae (Phaedon cochleariae).
(§2) After the specified period of time, mortality in % is determined 100% means all beetle larvae have been killed and 0% means none of the beetle larvae have been killed. The mortality values determined thus are recalculated using the Colby-formula (see sheet 1).

[2] = test system: fall armyworm larvae (Spodoptera frugiperda); assay: Spodoptera frugiperda spray test (Example C3, maize leaf sections)
Experimental: To produce a suitable preparation of the active compound, 1 part by weight of active compound is mixed with the stated amount of solvent and emulsifier, and the concentrate is diluted with emulsifier-containing water to the desired concentration. To produce a suitable preparation of a spore suspension the spores are diluted with emulsifier-containing water to the desired concentration.
(§3) Maize (Zea mays) leaf sections are sprayed with a preparation of the active ingredient of the desired concentration. Once dry, the leaf sections are infested with fall armyworm larvae (Spodoptera frugiperda).
(§4) After the specified period of time, mortality in % is determined 100% means all caterpillars have been killed and 0% means none of the caterpillars have been killed. The mortality values determined thus are recalculated using the Colby-formula (see sheet 1).

[3] = test system: fall armyworm larvae (Spodoptera frugiperda); assay: Spodoptera frugiperda spray test (Example C2, maize leaf sections)
Experimental: as §1, §3, §4

[4] = test system: mustard beetle larvae (Phaedon cochleariae); assay: Phaedon cochleariae spray test (Example A2, cabbage leaves)
Experimental: (§5) Solvent: 7 parts by weight of dimethylformamide
(§6) Emulsifier: alkylaryl polyglycol ether
To produce a suitable preparation of active compound, 1 part by weight of active compound is mixed with the stated amount of solvent and is diluted with water, containing an emulsifier concentration of 1000 ppm, to the desired concentration. Further test concentrations are prepared by dilution with emulsifier containing water Ammonium salt and/or penetration enhancer in a dosage of 1000 ppm are added to the desired concentration if necessary.
Cabbage leaves (Brassica oleracea) are treated by being sprayed with the preparation of the active compound of the desired concentration and are infested with mustard beetle larvae (Phaedon cochleariae).
After the specified period of time mortality in % is determined. 100% means all the beetle larvae have been killed and 0% means none of the beetle larvae have been killed. The mortality values determined thus are recalculated using the Colby-formula (see sheet 1).

[5] = test system: mustard beetle larvae (Phaedon cochleariae); assay: Phaedon cochleariae spray test (Example A1, Chinese cabbage leaf disks)
Experimental: (§7) To produce a suitable preparation of active compound, 1 part by weight of active compound is mixed with the stated amount of solvent and emulsifier, and the concentrate is diluted with emulsifier-containing water to the desired concentration. To produce a suitable preparation of a spore suspension the spores are diluted with emulsifier-containing water to the desired concentration.
Chinese cabbage (Brassica pekinensis) leaf-disks are sprayed with a preparation of the active ingredient of the desired concentration. Once dry, the leaf disks are infested with mustard beetle larvae (Phaedon cochleariae).
as §2

[6] = test system: two spotted spidermite (Tetranychus urticae); assay: Tetranychus urticae spray test, OP-resistant (Example B, French beans)
Experimental: as §7
French beans (Phaseolus vulgaris) which are heavily infested with all stages of the two spotted spidermite (Tetranychus urticae), are sprayed with a preparation of the active ingredient of the desired concentration.
After the specified period of time, mortality in % is determined 100% means all spider mites have been killed and 0% means none of the spider mites have been killed. The mortality values determined thus are recalculated using the Colby-formula (see sheet 1).

[7] = test system: caterpillars of the fall army worm (Spodoptera frugiperda); assay: Spodoptera frugiperda spray test (Example C1, cotton leaves)
Experimental: as §5, §6
To produce a suitable preparation of active compound, 1 part by weight of active compound is mixed with the stated amount of solvent and is diluted with water, containing an emulsifier concentration of 1000 ppm, to the desired concentration. Further test concentrations are prepared by dilution with emulsifier containing water Ammonium salt and/or penetration enhancer in a dosage of 1000 ppm are added if necessary.
Cotton leaves (Gossypium hirsutum) are treated by being sprayed with the preparation of the active compound of the desired concentration and are infested with caterpillars of the fall army worm (Spodoptera frugiperda).
After the specified period of time mortality in % is determined. 100% means all the caterpillars have been killed and 0% means none of the caterpillars have been killed. The mortality values determined thus are recalculated using the Colby-formula (see sheet 1).

Cc1cc(C(F)(C(F)(F)F)C(F)(F)F)ccc1NC(=O)c1cccc(Cl)c1C(=O)NC(C)(C)C#N [(I-5)] was tested, and the “Efficacy in % after 6 d” value ([1]; 2 g ai/ha) was 0%, the “Efficacy in % after 2 d” value ([1]; 4 g ai/ha) was 0% and the “Efficacy in % after 6 d” value ([1]; 4 g ai/ha) was 0%. The “Efficacy in % after 6 d” value ([2]; 0.25 g ai/ha) was 0%, the “Efficacy in % after 6 d” value ([2]; 3 g ai/ha) was 33% and the “Efficacy in % after 2 d” value ([3]; 1 g ai/ha) was 0%. For the same molecule, the “Efficacy in % after 6 d” value ([3]; 1 g ai/ha) was 33%, the “Efficacy in % after 2 d” value ([4]; 0.8 ppm) was 0% and the “Efficacy in % after 1 d” value ([4]; 1.6 ppm) was 0%. For the same molecule, the “Efficacy in % after 6 d” value ([5]; 4 g ai/ha) was 0%, the “Efficacy in % after 6 d” value ([6]; 2 g ai/ha) was 0% and the “Efficacy in % after 6 d” value ([6]; 4 g ai/ha) was 0%. For the same molecule, the “Efficacy in % after 6 d” value ([6]; 10 g ai/ha) was 0%, the “Efficacy in % after 2 d” value ([7]; 0.04 ppm) was 0% and the “Efficacy in % after 3 d” value ([7]; 0.04 ppm) was 0%. For the same molecule, the “Efficacy in % after 2 d” value ([7]; 0.08 ppm) was 10% and the “Efficacy in % after 3 d” value ([7]; 0.08 ppm) was 20%.
With CCOCn1c(-c2ccc(Cl)cc2)c(C#N)c(Br)c1C(F)(F)F [Chlorfenapyr] the “Efficacy in % after 6 d” value ([1]; 4 g ai/ha) was 0%, the “Efficacy in % after 2 d” value ([4]; 4 ppm) was 20% and the “Efficacy in % after 1 d” value ([4]; 8 ppm) was 5%. For the same molecule, the “Efficacy in % after 3 d” value ([7]; 0.8 ppm) was 0% and the “Efficacy in % after 2 d” value ([7]; 1.6 ppm) was 0%.
O=C(NC(=O)c1c(F)cccc1F)Nc1cc(Cl)c(Oc2ncc(C(F)(F)F)cc2Cl)c(Cl)c1 [Chlorfluazuron] was tested, and the “Efficacy in % after 6 d” value ([1]; 8 g ai/ha) was 0%, the “Efficacy in % after 2 d” value ([3]; 2 g ai/ha) was 0% and the “Efficacy in % after 6 d” value ([3]; 2 g ai/ha) was 0%. The “Efficacy in % after 2 d” value ([7]; 0.4 ppm) was 0% and the “Efficacy in % after 3 d” value ([7]; 0.4 ppm) was 30%.
In the case of COC(=O)N(C(=O)N1CO[C@@]2(C(=O)OC)Cc3cc(Cl)ccc3C2=N1)c1ccc(OC(F)(F)F)cc1 [Indoxacarb], the “Efficacy in % after 6 d” value ([1]; 4 g ai/ha) is reported as 0%, the “Efficacy in % after 2 d” value ([1]; 8 g ai/ha) is reported as 50% and the “Efficacy in % after 6 d” value ([1]; 8 g ai/ha) is reported as 50%. For the same molecule, the “Efficacy in % after 2 d” value ([3]; 0.1 g ai/ha) was 0%, the “Efficacy in % after 6 d” value ([3]; 0.1 g ai/ha) was 0% and the “Efficacy in % after 2 d” value ([7]; 0.2 ppm) was 10%. For the same molecule, the “Efficacy in % after 3 d” value ([7]; 0.2 ppm) was 20%.
With CCOC(=O)OC1=C(c2cc(C)ccc2C)C(=O)N[C@]12CC[C@@H](OC)CC2 [Spirotetramat] the “Efficacy in % after 6 d” value ([2]; 15 g ai/ha) was 0%, the “Efficacy in % after 6 d” value ([5]; 0.8 g ai/ha) was 0% and the “Efficacy in % after 6 d” value ([6]; 0.8 g ai/ha) was 30%. The “Efficacy in % after 6 d” value ([6]; 2 g ai/ha) was 20%.
